Source: patent publication US9605285B2, “Compositions and methods for succinate production” (CARGILL, INCORPORATED, priority 2011, dated 2017)

Tested on: yeast cells
Experiment: EMS mutagenesis of yeast cells
Format: cell-based
Details: 3 μL EMS per 200 μL cell suspension, approximately one hour
Experimental: For example, yeast cells from a fresh YP (yeast extract/peptone)+20 g/L glucose plate or liquid culture (OD600 1-4) are resuspended in sterile water to an OD600 of around 10. 200 μL aliquots of this cell suspension are pipetted into individual tubes and exposed to 3 μL […] (EMS) for approximately one hour, which kills around 65% of the cells. Higher EMS concentrations can also be used to increase the kill rate. After exposure, cells are neutralized with 5% sodium thiosulfate, washed in PBS buffer, recovered in rich media for approximately four hours, and cultured on selective media. Mock samples (no EMS) are also run to ensure that the conditions are selective. Alternatively, cell can be mutagenized using UV irradiation.

For CCOS(C)(=O)=O [EMS, ethane methyl sulfonate], the Cells killed was “around 65%”.
